System: Plasmodium berghei
Assay: Luciferase/luciferin-expressing antifolate-resistant parasites were used to infect a culture of HepG2 cells that were pre-incubated with compounds. Infected hepatocytes emit light due to the luciferase reaction. Assay results are presented as the percent inhibition of light emission compared to control. […]
Assay type: functional
Conditions: sporozoite; for IC90: read-out: LUCIFERASE INFECTION ASSAY - IC90
[1] = read-out: LUCIFERASE INFECTION ASSAY - IC50

Row | Structure (SMILES) | IC90 [µM] | IC50 [1] [µM] | further results
1 | Cc1ccc(NC(=O)COCc2nc3ccccc3s2)cc1S(=O)(=O)Nc1ccccc1F | > 10 |  | IC50 (HEPG2TOX_HILL_SLOPE 2.14, HEPG2TOX_R_SQUARED 0.975, PBLUC_HILL_SLOPE 2, PBLUC_R_SQUARED 0.573, read-out: LUCIFERASE INFECTION ASSAY - IC50): 4.27 µM
2 | O=C(OCc1cn(-c2ccccc2)nc1-c1ccccc1)c1ccc(N2CCOCC2)nc1 | > 10 | > 10 | 
3 | Cc1nn(-c2ccccc2Cl)c(Cl)c1/C=N/Nc1ccccc1Cl | 7.32 |  | IC50 (PBLUC_HILL_SLOPE 3.24, PBLUC_R_SQUARED 0.794, read-out: LUCIFERASE INFECTION ASSAY - IC50): 3.72 µM
4 | O=C(Cc1nc(C23CC4CC(CC(C4)C2)C3)cs1)NCc1ccccc1 | > 10 | > 10 | 
5 | CCN(CC)S(=O)(=O)c1ccc(N2CCOCC2)c(NC(=O)c2oc3ccccc3c2C)c1 | 9.03 |  | IC50 (PBLUC_HILL_SLOPE 2.77, PBLUC_R_SQUARED 0.561, read-out: LUCIFERASE INFECTION ASSAY - IC50): 4.08 µM
6 | O=c1c2c(-c3ccccc3)csc2nc2c3ccccc3c(Cl)nn12 | > 10 | > 10 | 
7 | Cc1cc(C(=O)COC(=O)c2ccc(Cl)cc2N)c(C)n1CC1CCCO1 (stereo unspecified) | > 10 | > 10 | 
8 | COC(=O)c1cc(CNC(=O)c2ccccc2O)ccc1OC | > 10 | > 10 | 
9 | O=C(NCc1ccccn1)c1nn(CCc2ccccc2)c2c1CN(Cc1ccc(F)cc1)CC2 | > 7.03 |  | IC50 (PBLUC_HILL_SLOPE 15.1, PBLUC_R_SQUARED 0.777, read-out: LUCIFERASE INFECTION ASSAY - IC50): 6.49 µM
10 | Cn1cc(-c2cnc3cnc(-c4ccccc4Oc4ccccc4)cn23)cn1 | 3.5 |  | IC50 (PBLUC_HILL_SLOPE 18.2, PBLUC_R_SQUARED 0.499, read-out: LUCIFERASE INFECTION ASSAY - IC50): 3.1 µM
11 | O=S1(=O)CC(S(=O)(=O)c2cccs2)c2ccccc21 (stereo unspecified) | > 10.5 | > 10.5 | 
12 | COc1ccc(OC)c(-c2csc(NC(=O)c3c(C)nc(C(C)C)nc3SC)n2)c1 | > 10 |  | IC50 (FFLUC_HILL_SLOPE 4.18, FFLUC_R_SQUARED 0.209, HEPG2TOX_HILL_SLOPE 6.05, HEPG2TOX_R_SQUARED 0.136, PBLUC_HILL_SLOPE 1.9, PBLUC_R_SQUARED 0.115, read-out: LUCIFERASE INFECTION ASSAY - IC50): > 10 µM
13 | O=S(=O)(Cc1cc(N2CCN(c3ccccc3)CC2)nc(-c2ccccn2)n1)c1ccccc1 | > 7 | > 7 | 
14 | CCCn1c(N)c(C(=O)CN(Cc2ccco2)Cc2cccs2)c(=O)[nH]c1=O | > 10 |  | IC50 (PBLUC_HILL_SLOPE 2.23, PBLUC_R_SQUARED 0.528, read-out: LUCIFERASE INFECTION ASSAY - IC50): 5.46 µM
15 | CCc1cccc2c(/C=C(/C(=O)NCc3ccccn3)c3nc4ccccc4[nH]3)c[nH]c12 | > 10 |  | IC50 (PBLUC_HILL_SLOPE 0.583, PBLUC_R_SQUARED 0.274, read-out: LUCIFERASE INFECTION ASSAY - IC50): > 10 µM
16 | O=c1c(Cl)c2oc3ccccc3nc-2c2ccccc12 | > 11.7 |  | IC50 (HEPG2TOX_HILL_SLOPE 6.69, HEPG2TOX_R_SQUARED 0.668, PBLUC_HILL_SLOPE 2.65, PBLUC_R_SQUARED 0.745, read-out: LUCIFERASE INFECTION ASSAY - IC50): 5.79 µM
17 | CC1S/C(=C\c2nc3ccccc3s2)NC1=O (stereo unspecified) | > 10 |  | IC50 (HEPG2TOX_HILL_SLOPE 1.83, HEPG2TOX_R_SQUARED 0.983, PBLUC_HILL_SLOPE 1.76, PBLUC_R_SQUARED 0.572, read-out: LUCIFERASE INFECTION ASSAY - IC50): 3.43 µM
18 | Cc1ccccc1-c1cccc(CN2CCC3(CC2)C(=O)N(CCCc2ccncc2)C(=O)N3C)c1 | 2.53 |  | IC50 (HEPG2TOX_HILL_SLOPE 0.98, HEPG2TOX_R_SQUARED 0.922, PBLUC_HILL_SLOPE 14, PBLUC_R_SQUARED 0.565, read-out: LUCIFERASE INFECTION ASSAY - IC50): 2.16 µM
19 | CC1CCCN(C(=O)COc2ccc(-c3nc4ccccc4s3)cc2)C1 (stereo unspecified) | > 10 |  | IC50 (HEPG2TOX_HILL_SLOPE 6.02, HEPG2TOX_R_SQUARED 0.809, PBLUC_HILL_SLOPE 2.74, PBLUC_R_SQUARED 0.285, read-out: LUCIFERASE INFECTION ASSAY - IC50): 6.51 µM
20 | COCCCn1c(SCC(=O)NC(=O)Nc2ccccc2)n[nH]c1=O | > 10 | > 10 | 
21 | CN(CCCN1C(=O)c2ccccc2C1=O)CC(=O)N(C)C | > 10 | > 10 | 
22 | CN(C)C(=O)c1ccc(-c2cc3c(Nc4cccc(N(C)C)c4)nccc3n2C)cc1 | > 10 | > 10 | 

Row | Structure (SMILES) | IC90 [µM] | IC50 [1] [µM] | further results
23 | CCOC(=O)c1c(C2CC2)csc1NC(=O)COC(=O)c1cc(C)n(-c2cc(Cl)ccc2OC)c1C | > 10 |  | IC50 (FFLUC_HILL_SLOPE 35.2, FFLUC_R_SQUARED 0.269, read-out: LUCIFERASE INFECTION ASSAY - IC50): > 10 µM
24 | CCc1cccc2c(C(=O)COC(=O)C3CCN(S(=O)(=O)c4ccc(Cl)c(C(F)(F)F)c4)CC3)c[nH]c12 | > 10 |  | IC50 (FFLUC_HILL_SLOPE 3.04, FFLUC_R_SQUARED 0.433, read-out: LUCIFERASE INFECTION ASSAY - IC50): > 10 µM
25 | CCCCNC(=O)c1c(NC(=O)c2ccccc2F)nc2ccc(C)cn12 | 3.54 |  | IC50 (FFLUC_HILL_SLOPE 17.2, FFLUC_R_SQUARED 0.157, HEPG2TOX_HILL_SLOPE 8.23, HEPG2TOX_R_SQUARED 0.602, PBLUC_HILL_SLOPE 11.7, PBLUC_R_SQUARED 0.726, read-out: LUCIFERASE INFECTION ASSAY - IC50): 2.94 µM
26 | CCC1CCCCN1CC(=O)Nc1cc(C)nn1-c1nc(C)cc(C)n1 (stereo unspecified) | > 10 |  | IC50 (HEPG2TOX_HILL_SLOPE 4.29, HEPG2TOX_R_SQUARED 0.929, read-out: LUCIFERASE INFECTION ASSAY - IC50): > 10 µM
27 | COC(=O)c1ccc(CSc2nnc(NC(=O)c3ccccc3[N+](=O)[O-])s2)cc1 | 0.0537 |  | IC50 (FFLUC_HILL_SLOPE 3.72, FFLUC_R_SQUARED 0.492, PBLUC_HILL_SLOPE 2.08, PBLUC_R_SQUARED 0.667, read-out: LUCIFERASE INFECTION ASSAY - IC50): 0.0187 µM
28 | CC(C)(C)c1csc(NC(=O)C2CCCN2S(=O)(=O)c2ccc(Br)s2)n1 (stereo unspecified) | > 10 |  | IC50 (PBLUC_HILL_SLOPE 9.23, PBLUC_R_SQUARED 0.508, read-out: LUCIFERASE INFECTION ASSAY - IC50): 9.84 µM
29 | CNc1nc2cnc(Nc3cccc(F)c3)cc2n1-c1cccc(C(F)(F)F)c1 | > 10 |  | IC50 (FFLUC_HILL_SLOPE 8.44, FFLUC_R_SQUARED 0.0352, read-out: LUCIFERASE INFECTION ASSAY - IC50): > 10 µM
30 | CNC(=O)c1ccc(/C=C/C(=O)c2ccc3cccc4c3c2CC4)cc1 | > 10 | > 10 | 
31 | Cn1c(Nc2ccccc2)nc2cnc(-c3ccc4ccccc4c3)cc21 | > 10 |  | IC50 (PBLUC_HILL_SLOPE 3.04, PBLUC_R_SQUARED 0.156, read-out: LUCIFERASE INFECTION ASSAY - IC50): 6.85 µM
32 | CC(C)(C)c1ccc(CSCCNC2=CC(=O)CC(c3ccc4c(c3)OCO4)C2)cc1 (stereo unspecified) | > 7.54 |  | IC50 (HEPG2TOX_HILL_SLOPE 3.72, HEPG2TOX_R_SQUARED 0.93, PBLUC_HILL_SLOPE 2.67, PBLUC_R_SQUARED 0.216, read-out: LUCIFERASE INFECTION ASSAY - IC50): 3.87 µM
33 | COc1ccc(C(CNC(=O)c2ccc(Oc3ccc(Cl)cc3[N+](=O)[O-])cc2)N2CCCC2)cc1 (stereo unspecified) | > 10 |  | IC50 (PBLUC_HILL_SLOPE 1.72, PBLUC_R_SQUARED 0.19, read-out: LUCIFERASE INFECTION ASSAY - IC50): 6.08 µM
34 | CC(C)c1cccc(-c2nc3ccnc(NCc4ccccn4)c3[nH]2)c1 | > 10 |  | IC50 (HEPG2TOX_HILL_SLOPE 1.38, HEPG2TOX_R_SQUARED 0.883, PBLUC_HILL_SLOPE 3.5, PBLUC_R_SQUARED 0.343, read-out: LUCIFERASE INFECTION ASSAY - IC50): 6.01 µM
35 | Cc1ccc2nc(NC(=O)c3ccccc3)c(C(=O)NC3CCCC3)n2c1 | 3.58 | 3.06 | 
36 | Cc1nn(-c2ccccc2)c2nc(Cl)c(C3Nc4ccccc4-c4nc5ccccc5n43)cc12 (stereo unspecified) | > 10 |  | IC50 (FFLUC_HILL_SLOPE 11.9, FFLUC_R_SQUARED 0.792, read-out: LUCIFERASE INFECTION ASSAY - IC50): > 10 µM
37 | Cc1cc(NC(=O)C2CC2)sc1C(=O)N1CCNC(=O)C1 | > 10 | > 10 | 
38 | NC(=O)NC(CC(=O)OCC(=O)Nc1ccccc1-c1ccccc1)c1ccc(Cl)cc1 (stereo unspecified) | > 10 |  | IC50 (PBLUC_HILL_SLOPE 5.92, PBLUC_R_SQUARED 0.131, read-out: LUCIFERASE INFECTION ASSAY - IC50): > 10 µM
39 | Cc1ccc(-c2csc(NC(=O)C3CCN(c4ncnc5sc(C)c(C)c45)CC3)n2)cc1 | 1.74 |  | IC50 (FFLUC_HILL_SLOPE 3.71, FFLUC_R_SQUARED 0.648, HEPG2TOX_HILL_SLOPE 2.17, HEPG2TOX_R_SQUARED 0.62, PBLUC_HILL_SLOPE 8.52, PBLUC_R_SQUARED 0.61, read-out: LUCIFERASE INFECTION ASSAY - IC50): 1.35 µM
40 | Cc1cc(/C=C2\SC(N3CCOCC3)=NC2=O)c(C)n1-c1cccc(C(F)(F)F)c1 | > 10 | > 10 | 
41 | Cc1ccc(Nc2ccc(-c3nc4ccccc4[nH]3)cn2)cc1C | 4.25 |  | IC50 (HEPG2TOX_HILL_SLOPE 3.79, 0.829, HEPG2TOX_R_SQUARED 0.701, 0.968, PBLUC_HILL_SLOPE 2.85, 14.2, PBLUC_R_SQUARED 0.393, 0.513, read-out: LUCIFERASE INFECTION ASSAY - IC50): 2.27 µM
42 | CC(C)n1ncc2c1N=C(N(C)C)N(c1ccccc1)C2c1ccc(Cl)cc1 (stereo unspecified) | > 10 |  | IC50 (HEPG2TOX_HILL_SLOPE 1.3, HEPG2TOX_R_SQUARED 0.392, read-out: LUCIFERASE INFECTION ASSAY - IC50): > 10 µM
43 | CC1CC1C(=O)Nc1cccc(S(=O)(=O)N(C)c2ccccc2)c1 (stereo unspecified) | > 10 | > 10 | 

From ChEMBL document CHEMBL4483862, “Open-source discovery of chemical leads for next-generation chemoprotective antimalarials” (2018)
